Experiments:
[1] = HU-211 concentration in emulsions on storage; format: physicochemical; conditions: in emulsion
Procedure: The HU-211 concentration was measured at different temperatures after various storage times and the results are shown in Fig. 11.

Albino rabbits = assay: Intraocular pressure (IOP) after a single topical dose of HU-211 emulsion; format: in vivo; conditions: for decrease of IOP in the contralateral eye: untreated left eye, about 4 hours after administration
Procedure: Albino rabbits of both sexes weighing 2.25 kg were used. All rabbits chosen had no signs of ocular pathology.
(§1) The intraocular pressure (IOP) was measured by a Digilab pneumotonometer model 30R. For IOP measurement, one drop of the local anaesthetic benoxinate HCl (Fischer Pharmaceuticals, Israel) diluted 1:3 in sterile solution was instilled into each eye. In order to ensure reproducibility of IOP readings, the animals were accustomed to the experimental procedure by repeated handling.
Basal IOP was measured for 2 days prior to drug application by measuring the IOP 5 times over an 11 hrs. period (starting at 8am and ending at 7pm). Each time IOP was measured twice and an average of two readings was obtained.
IOP was measured at the time of drug application and at 1.5, 4, 6 and 11 hrs. thereafter.
Two groups of animals were tested, each by a different experimenter. The first group which consisted of 20 rabbits is referred to herein as " Group I" and the second group which consisted of 10 rabbits is referred to herein as "Group II". The two groups received, however, exactly the same treatment.
The treatment consisted of the application of a single dose of 50µl of a 0.1% (w/v) of HU-211 preparation in accordance with the invention into the lower cul-de-sac of the right eye of each rabbit. The eye was then kept open for a few more seconds, while excessive liquid spilling over the eyelid was wiped off. The left eye was not treated.

A. niger = assay: Preservative efficacy in emulsion (Table 2); format: cell-based
Procedure: (§2) To each 20ml of emulsion, an inoculum of a microorganismal suspension (at an initial concentration of about 1-3 x 10⁸ cells per ml) was added under sterile conditions to a final concentration of about 1-3 x 10⁶ cells per ml of emulsion. Immediately upon inoculation and at 24, 48 hours, 7, 14 and 28 days thereafter, samples of 1 ml were withdrawn and eluted in a pH 7.0 sodium chloride buffer (B.P. 88 neutralizing buffer, DIFCO Laboratories, Detroit, MI, USA) to neutralize the preservatives. After about 20-30 minutes of exposure of sample to the neutralizing buffer, samples were filtered through a 0.45µm cellulose acetate filter (TE, Schueller & Schleicher). The filter and the holder were washed with 3 portions of 100 ml of sodium chloride peptone solution and then the filter was transferred to a petri dish with PCPL media which consisted of the following ingredients (per 400 ml): 20g tryptone, 1.0g yeast extract, 0.4g. dextrose, 6.0 bactoagar, 0.4g lethicin and 8.0ml Tween 80.
(§3) At 24 hours or at 2 to 5 days after the withdrawal of the sample, the number of the microorganism was counted on the petri dishes. (In order to achieve a proper count of the microorganism dilutions of the initially withdrawn sample to obtain a dilution factor of 1:10-1:50,000, were made).
(§4) Two blank emulsions without a preservative served as control for the two different neutralizing buffers.

C. albicans = assay: Preservative efficacy in emulsion (Table 2); format: cell-based
Procedure: as §2, §3, §4

E. coli = assay: Preservative efficacy in emulsion (Table 2); format: cell-based
Procedure: as §2, §3, §4

P. aeruginosa = assay: Preservative efficacy in emulsion (Table 2); format: cell-based
Procedure: as §2, §3, §4

S.aureus = assay: Preservative efficacy in emulsion (Table 2); format: cell-based; conditions: for Number of Organisms in 1ml Emulsion: S.aureus
Procedure: as §2, §3, §4

microorganisms = assay: Preservative efficacy of single preservatives, overall judgement; format: cell-based
Procedure: as §2, §3, §4
The same experiment was also carried out with Chlorbutol alone instead of Thimerosal.

[2] = test system: ocularly hypertensive rabbits; assay: IOP after topical Δ⁸-THC composition, hypertensive rabbits; format: in vivo, albino rabbits; conditions: composition of the invention comprising 0.4% Δ⁸-THC
Procedure: as §1
(§5) A composition in accordance with the invention comprising 0.4% Δ⁸-THC was administered to the right eyes of albino rabbits. The administration of the composition and IOP measurements were performed as described above under (A).
(§6) Both ocularly hypertensive and normo-tensive albino rabbits were used in the study.

[3] = test system: ocularly normo-tensive rabbits; assay: IOP after topical Δ⁸-THC composition, normo-tensive rabbits; format: in vivo, albino rabbits; conditions: composition of the invention comprising 0.4% Δ⁸-THC
Procedure: as §1, §5, §6

[4] = treated eye, single dose 50µl of 0.1% (w/v) HU-211
[5] = Oh (immediately upon inoculation)
[6] = single preservative in emulsion

With CCCCCCC(C)(C)c1cc(O)c2c(c1)OC(C)(C)[C@H]1CC=C(CO)C[C@H]21 [HU-211] the HU-211 concentration ([1]; 8 months at 4°C, 25°C, 30°C and 37°C) was “essentially no change”, the HU-211 concentration ([1]; storage at 50°C) was “marked decrease in concentration” and the “decrease of IOP in the contralateral eye” value (Albino rabbits; Group I) was “about 11.4%”. For the same compound, the “decrease of IOP in the contralateral eye” value (Albino rabbits; Group II) was ~12.1%, the “time until which the decrease in IOP persisted” value (Albino rabbits; treated eye, percentage of IOP change from basal level (Fig. 14)) was “about 11 hours” and the “time after which basal IOP levels were resumed” value (Albino rabbits; [4]) was “about 11 hrs”. For the same compound, the “time for which the decrease in IOP lasted” value (Albino rabbits; [4]) was “about 6 hrs” and the IOP (Albino rabbits; treated right eye, single dose of 50µl of 0.1% (w/v) HU-211 emulsion) was “dramatic decrease in IOP”.

For N=C(NCCCCCCNC(=N)NC(=N)Nc1ccc(Cl)cc1)NC(=N)Nc1ccc(Cl)cc1 [CHL, Chlorhexidine gluconate], the “Number of Organisms in 1ml Emulsion” value (A. niger; 24h) was 38, the “Number of Organisms in 1ml Emulsion” value (A. niger; 48h) was 54 and the “Number of Organisms in 1ml Emulsion” value (C. albicans; 24h) was >600. The “Number of Organisms in 1ml Emulsion” value (C. albicans; 48h) was 433, the “Number of Organisms in 1ml Emulsion” value (C. albicans; [5]) was 0.9 x 10^6 and the “Number of Organisms in 1ml Emulsion” value (E. coli; 48h) was 5 x 10^6. For the same compound, the “Number of Organisms in 1ml Emulsion” value (E. coli; [5]) was 5.5 x 10^6, the “Number of Organisms in 1ml Emulsion” value (P. aeruginosa; 24h) was 10^7 and the “Number of Organisms in 1ml Emulsion” value (P. aeruginosa; 48h) was 10^7. For the same compound, the “Number of Organisms in 1ml Emulsion” value (P. aeruginosa; [5]) was 4.2 x 10^6 and the “Number of Organisms in 1ml Emulsion” value (S.aureus; [5]) was 3.5 x 10^6.

With CC(C)(O)C(Cl)(Cl)Cl [Chlorbutol] the “compliance with B.P. requirements” value (microorganisms; [6]) was “did not meet the B.P. requirements” and the preservative protection (microorganisms; [6]) was “No total preservative protection was achieved”.

For Δ⁸-THC, the “duration of the reduction of IOP” value [2] was “long-lasting”, the IOP ([2]; right eye) was “dramatically reduces the IOP” and the “duration of the reduction of IOP” value [3] was “long-lasting”. The IOP ([3]; right eye) was “dramatically reduces the IOP”.

With C[CH2][Hg][S]c1ccccc1C(=O)O [THI, Thimerosal] the preservative protection (C. albicans; at 24h) was “not able to protect totally”, the “maintenance of total killing” value (P. aeruginosa; after 48 hours) was “contamination was noted” and the “maintenance of total killing” value (S.aureus; S. aureus, after 48 hours) was “contamination was noted”. For the same compound, the “preservative effect compared with the other tested preservatives” value (microorganisms; 0.01% Thimerosal vs 0.02% benzalkonium chloride and 0.05% chlorhexadiene gluconate) was “much better preservative effect”.

With Benzalkonium chloride [BZK] the “Number of Organisms in 1ml Emulsion” value (A. niger; 24h) was 29, the “Number of Organisms in 1ml Emulsion” value (A. niger; 48h) was 43 and the “Number of Organisms in 1ml Emulsion” value (A. niger; [5]) was 1.5 x 10^4. For the same compound, the “Number of Organisms in 1ml Emulsion” value (C. albicans; 24h) was >600, the “Number of Organisms in 1ml Emulsion” value (C. albicans; 48h) was 433 and the “Number of Organisms in 1ml Emulsion” value (C. albicans; [5]) was 1.0 x 10^6. The “Number of Organisms in 1ml Emulsion” value (E. coli; 24h) was 10^7, the “Number of Organisms in 1ml Emulsion” value (E. coli; 48h) was 5 x 10^6 and the “Number of Organisms in 1ml Emulsion” value (E. coli; [5]) was 2.6 x 10^6. For the same compound, the “Number of Organisms in 1ml Emulsion” value (P. aeruginosa; 24h) was 10^7, the “Number of Organisms in 1ml Emulsion” value (P. aeruginosa; 48h) was 10^7 and the “Number of Organisms in 1ml Emulsion” value (P. aeruginosa; [5]) was 4.2 x 10^6. The “Number of Organisms in 1ml Emulsion” value (S.aureus; 24h) was 10^7, the “Number of Organisms in 1ml Emulsion” value (S.aureus; 48h) was 10^7 and the “Number of Organisms in 1ml Emulsion” value (S.aureus; [5]) was 7.3 x 10^6.

Reference: patent publication EP0521799A1, “Ophthalmic compositions” (YISSUM RESEARCH DEVELOPMENT COMPANY OF THE HEBREW …, priority 1991, dated 1993)
